Activity calls are given as the source filed them. The rule behind the calls is not given here.
Columns and labels:
MDA-MB-468 = assay: Cell cycle arrest in human MDA-MB-468 cells assessed as accumulation of cells at G2/M-phase at 2.5 uM measured after 24 hrs by propidium iodide staining based flow cytometry (reference value: 26.49%); type: functional
MV4-11 [1] = assay: Cell cycle arrest in human MV4-11 cells assessed as accumulation of cells at G1-phase at 1.25 uM measured after 24 hrs by propidium iodide staining based flow cytometry (reference value: 61.42%); type: functional
MV4-11 [2] = assay: Cell cycle arrest in human MV4-11 cells assessed as accumulation of cells at G2/M-phase at 0.16 uM measured after 24 hrs by propidium iodide staining based flow cytometry (reference value: 15.23%); type: functional
MV4-11 [3] = assay: Cell cycle arrest in human MV4-11 cells assessed as accumulation of cells at G2/M-phase at 2.5 uM measured after 24 hrs by propidium iodide staining based flow cytometry (reference value: 15.23%); type: functional
[4] = test system: T1, Receptor-type tyrosine-protein kinase FLT3 (Homo sapiens), P36888 [D835Y]; conditions: Sf21, dose 200.0 nM
T1 sequence (whole entry): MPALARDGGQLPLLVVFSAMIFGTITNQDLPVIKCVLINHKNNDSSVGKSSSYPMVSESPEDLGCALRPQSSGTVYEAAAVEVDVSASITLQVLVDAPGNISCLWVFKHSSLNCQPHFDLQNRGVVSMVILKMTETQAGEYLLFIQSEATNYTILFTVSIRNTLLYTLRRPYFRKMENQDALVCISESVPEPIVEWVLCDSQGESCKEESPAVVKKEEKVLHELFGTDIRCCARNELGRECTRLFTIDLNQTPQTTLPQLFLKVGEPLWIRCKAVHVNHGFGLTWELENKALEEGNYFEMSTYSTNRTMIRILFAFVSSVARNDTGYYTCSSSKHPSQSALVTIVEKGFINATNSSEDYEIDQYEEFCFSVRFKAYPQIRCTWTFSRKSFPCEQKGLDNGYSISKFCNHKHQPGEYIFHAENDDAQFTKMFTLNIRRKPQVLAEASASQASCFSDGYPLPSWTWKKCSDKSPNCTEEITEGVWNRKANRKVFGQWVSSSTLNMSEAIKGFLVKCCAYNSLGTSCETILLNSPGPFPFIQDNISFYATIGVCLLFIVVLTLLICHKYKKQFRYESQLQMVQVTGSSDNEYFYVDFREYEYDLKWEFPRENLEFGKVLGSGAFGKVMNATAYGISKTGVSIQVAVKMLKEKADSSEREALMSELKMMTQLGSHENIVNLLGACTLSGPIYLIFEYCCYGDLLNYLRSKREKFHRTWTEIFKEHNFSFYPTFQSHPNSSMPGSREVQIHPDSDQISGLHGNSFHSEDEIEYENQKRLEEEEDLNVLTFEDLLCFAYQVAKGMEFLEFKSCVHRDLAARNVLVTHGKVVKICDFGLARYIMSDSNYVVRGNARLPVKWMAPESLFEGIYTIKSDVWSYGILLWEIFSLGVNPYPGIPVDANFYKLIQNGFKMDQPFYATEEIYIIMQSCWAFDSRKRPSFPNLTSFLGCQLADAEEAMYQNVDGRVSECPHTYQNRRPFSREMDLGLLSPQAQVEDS

MV4-11 [5] = assay: Cell cycle arrest in human MV4-11 cells assessed as accumulation of cells at G1-phase at 0.32 uM measured after 24 hrs by propidium iodide staining based flow cytometry (reference value: 61.42%); type: functional
COLO 205 [6] = conditions: Mus musculus, CD1, dose 50.0 mg/kg, route po
[7] = Toxicity in human COLO 205 cells xenografted CD1 nu/nu mouse assessed as body weight loss at 50 mg/kg, po administered daily via gavage for 56 days and measured twice per week during compound dosing; type: organism-based; conditions: in vivo, 1344 h, time 56 day
MV4-11 [8] = assay: Cell cycle arrest in human MV4-11 cells assessed as accumulation of cells at S-phase at 0.32 uM measured after 24 hrs by propidium iodide staining based flow cytometry (reference value: 23.35%); type: functional
COLO 205 [9] = conditions: Mus musculus, CD1, dose 50.0 mg/kg, route po; remark: listed apart in the source
[10] = Toxicity in human COLO 205 cells xenografted CD1 nu/nu mouse assessed as change in ileum histology at 50 mg/kg, po administered daily via gavage for 56 days and measured on day 41 to 69 by histopathological analysis; type: organism-based; conditions: in vivo, 1344 h, time 41-69 day
COLO 205 [11] = conditions: Mus musculus, CD1, dose 50.0 mg/kg, route po, time lower 1.0 hrs, time upper […], TDE = time-dependent effect
[12] = target: Receptor-type tyrosine-protein kinase FLT3 (Homo sapiens) (UniProt P36888); conditions: Sf21, dose 200.0 nM
Description: Inhibition of recombinant human N-terminal GST-tagged FLT3 (564 to end residues) expressed in baculovirus infected Sf21 cells at 200 nM using Abltide as substrate relative to control

COLO 205 [13] = conditions: Mus musculus, CD1, dose 100.0 mg/kg, route po, time 21.0 day
MV4-11 [14] = assay: Cell cycle arrest in human MV4-11 cells assessed as accumulation of cells at G2/M-phase at 0.04 uM measured after 24 hrs by propidium iodide staining based flow cytometry (reference value: 15.23%); type: functional
[15] = Toxicity in human Calu-6 cells xenografted CD1 nu/nu mouse assessed as body weight loss at 50 mg/kg, po administered once daily via gavage for 12 days followed by gemcitabine addition for 4 days and measured twice per week during compound dosing; type: organism-based; conditions: in vivo, 384 h, time 16 day
COLO 205 [16] = conditions: Homo sapiens, dose 50.0 mg/kg, route po, time > 3.0 weeks
Description: Antitumor activity against human COLO 205 cells xenografted in CD1 nu/nu mouse assessed as tumor growth inhibition at 50 mg/kg, po administered daily via gavage for 2 cycles of over 3 weeks on/1 week rest

MV4-11 [17] = assay: Cell cycle arrest in human MV4-11 cells assessed as accumulation of cells at G1-phase at 5 uM measured after 24 hrs by propidium iodide staining based flow cytometry (reference value: 61.42%); type: functional
MV4-11 [18] = assay: Cell cycle arrest in human MV4-11 cells assessed as accumulation of cells at S-phase at 5 uM measured after 24 hrs by propidium iodide staining based flow cytometry (reference value: 23.35%); type: functional
COLO 205 [19] = conditions: Mus musculus, CD1, dose 100.0 mg/kg, route po, time 21.0 day; remark: listed apart in the source
COLO 205 [20] = conditions: Mus musculus, CD1, dose 50.0 mg/kg, route po; remark: listed apart in the source
[21] = target: Glycogen synthase kinase-3 beta (Homo sapiens) (UniProt P49841); conditions: dose 200.0 nM
Description: Inhibition of human GSK3beta relative to control

[22] = Toxicity in human COLO 205 cells xenografted CD1 nu/nu mouse assessed as change in cecum histology at 50 mg/kg, po administered daily via gavage for 2 cycles of 3 weeks on/1 week rest and measured on day 41 to 69 by histopathological analysis; type: organism-based; conditions: in vivo, time 41-69 day
MV4-11 [23] = assay: Cell cycle arrest in human MV4-11 cells assessed as accumulation of cells at G2/M-phase at 0.32 uM measured after 24 hrs by propidium iodide staining based flow cytometry (reference value: 15.23%); type: functional

Chain of Glycogen synthase kinase-3 beta (Homo sapiens) (P49841 whole entry, looked up): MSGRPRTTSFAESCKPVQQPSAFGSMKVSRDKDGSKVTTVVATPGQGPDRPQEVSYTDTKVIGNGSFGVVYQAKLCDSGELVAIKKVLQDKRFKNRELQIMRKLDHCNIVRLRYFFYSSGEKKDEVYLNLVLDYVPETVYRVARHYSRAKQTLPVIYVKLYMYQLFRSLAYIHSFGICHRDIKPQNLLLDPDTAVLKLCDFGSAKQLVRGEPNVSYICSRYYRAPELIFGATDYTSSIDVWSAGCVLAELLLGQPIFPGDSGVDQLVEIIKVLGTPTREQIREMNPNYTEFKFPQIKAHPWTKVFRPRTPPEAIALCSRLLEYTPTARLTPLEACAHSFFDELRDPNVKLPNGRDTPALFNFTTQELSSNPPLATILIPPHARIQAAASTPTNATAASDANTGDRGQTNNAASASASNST

`CCN1CCN(Cc2ccc(Nc3ncc(F)c(-c4cc(F)c5nc(C)n(C(C)C)c5c4)n3)nc2)CC1` [ABEMACICLIB] gave an Activity (MDA-MB-468) of 28.82%, an Activity (MV4-11 [1]) of 93.98% and an Activity (MV4-11 [2]) of 2.73%. For the same molecule, the Activity (MV4-11 [3]) was 2.96%, the inhibition [4] was > 90% and the Activity (MV4-11 [5]) was 95.5%. The inhibition (COLO 205 [6]) was “Active”, the Activity [7] was “Non-Toxic” and the Activity (MV4-11 [8]) was 2.68%. For the same molecule, the inhibition (COLO 205 [9]) was “inactive”, the Activity [10] was “Non-Toxic” and the inhibition (COLO 205 [11]) was “Tde”. For the same molecule, the inhibition [12] was > 90%, the inhibition (COLO 205 [13]) was “Active” and the Activity (MV4-11 [14]) was 6.21%. For the same molecule, the Activity [15] was “Non-Toxic”, the TGI (COLO 205 [16]) was “Active” and the Activity (MV4-11 [17]) was 95.56%. For the same molecule, the Activity (MV4-11 [18]) was 3.9%, the inhibition (COLO 205 [19]) was “Active” and the inhibition (COLO 205 [20]) was “Active”. The inhibition [21] was > 90%, the Activity [22] was “Non-Toxic” and the Activity (MV4-11 [23]) was 1.82%.
